Our source for the solubility values is US9944659B2, “Boron-containing diacylhydrazine compounds” (Intrexon Corporation, priority 2014, dated 2018).

≈ marks a conversion by molar mass, not a printed value. Like-named read-outs stand apart in the source and are kept apart here.

This data set can be described thus: Solubility (24 hrs equilibration at RT, HPLC-UV). The data set is classed as physicochemical. Particulars: thermodynamic from solid, target concentration 5 mg/ml, 24 hrs at RT. Here is the method: Representative Compounds of the Disclosure were tested for solubity (Table 4) as follows:
0.1 M Phosphate Buffer Ionic Strength ˜0.15M
Simulated Intestinal Fluid pH 7.5 (USP)
Weigh ˜2 mgs of compound into clean glass 1 dram vails.
Add ˜[…] of appropriate media to vial to yield a target concentration of 5 mg/ml.
Place vials on a rotating shaker and equilibrate for 24 hrs. at RT.
Remove supernatant to microcentrifuge tubes and centrifuge at 1300 rpm for 30 minutes.
Remove an aliquot of supernatant, dilute accordingly with acetonitrile.
Assay Samples by HPLC-UV Against Standards.

Where [1] appears, read: biorelevant, Simulated Intestinal Fluid pH 7.5 (USP), read-out: Solubility SIF.
Where [2] appears, read: pH 7.4, aqueous buffer, 0.1 M Phosphate Buffer, read-out: Solubility pH 7.4.

Take `COc1cccc(C(=O)NN(C(=O)c2ccc3c(c2)N=COB3O)C(C)(C)C)c1C` [compound 13, N-(tert-butyl)-1-hydroxy-N′-(3-methoxy-2-methylbenzoyl)-1H-benzo[c][1,5,2]oxazaborinine-6-carbohydrazide]: the solubility (commonly how much of the substance goes into solution per volume) at 24 h reads like this: under setting [1], 0.334 mg/mL (≈ 815 µM); under setting [2], 0.221 mg/mL (≈ 540 µM).
The like results for `CC1=Nc2cc(C(=O)NN(C(=O)c3cc(C)cc(C)c3)C(C)(C)C)ccc2B(O)O1` [compound 2, N′-(tert-butyl)-N′-(3,5-dimethylbenzoyl)-1-hydroxy-3-methyl-1H-benzo[c][1,5,2]oxazaborinine-6-carbohydrazide] were, in that order, 4.05 mg/mL (≈ 9940 µM) and 4.31 mg/mL (≈ 10600 µM).
In the same order, the values of `Cc1cc(C)cc(C(=O)N(NC(=O)c2ccc(B(O)O)c(NS(=O)(=O)c3ccccc3)c2)C(C)(C)C)c1` [compound 7, (4-(2-(tert-butyl)-2-(3,5-dimethylbenzoyl)hydrazine-1-carbonyl)-2-(phenylsulfonamido)phenyl)boronic acid] are 0.0107 mg/mL (≈ 20.4 µM) and 0.0041 mg/mL (≈ 7.83 µM).
In the same order, the values of `COc1cccc(C(=O)NN(C(=O)c2ccc3c(c2)B(O)OC3)C(C)(C)C)c1C` [compound 8, N-(tert-butyl)-1-hydroxy-N′-(3-methoxy-2-methylbenzoyl)-1,3-dihydrobenzo[c][1,2]oxaborole-6-carbohydrazide] are 0.121 mg/mL (≈ 305 µM) and 0.0423 mg/mL (≈ 107 µM).
Take `Cc1cc(C)cc(C(=O)N(NC(=O)c2ccc3c(c2)N=COB3O)C(C)(C)C)c1` [compound 3, N′-(tert-butyl)-N′-(3,5-dimethylbenzoyl)-1-hydroxy-1H-benzo[c][1,5,2]oxazaborinine-6-carbohydrazide]: the solubility at 24 h runs as follows: under setting [1], 0.0902 mg/mL (≈ 229 µM); under setting [2], 0.0394 mg/mL (≈ 100 µM).
In the same order, the values of `Cc1cc(C)cc(C(=O)N(NC(=O)c2ccc3c(c2)B(O)NC3)C(C)(C)C)c1` [compound 1, N′-(tert-butyl)-N′-(3,5-dimethylbenzoyl)-1-hydroxy-2,3-dihydro-1H-benzo[c][1,2]azaborole-6-carbohydrazide] are 4.87 mg/mL (≈ 12900 µM) and above 5 mg/mL.
In the case of `COc1cccc(C(=O)NN(C(=O)c2ccc3c(c2)B(O)NC3)C(C)(C)C)c1C` [compound 9, N-(tert-butyl)-1-hydroxy-N′-(3-methoxy-2-methylbenzoyl)-2,3-dihydro-1H-benzo[c][1,2]azaborole-6-carbohydrazide], the solubility at 24 h was 4.51 mg/mL (≈ 11400 µM) under setting [1] and 4.92 mg/mL (≈ 12400 µM) under setting [2].
In the case of `COc1cccc(C(=O)NN(C(=O)c2ccc(B(O)O)c(NS(=O)(=O)c3ccccc3)c2)C(C)(C)C)c1C` [compound 16, (4-(1-(tert-butyl)-2-(3-methoxy-2-methylbenzoyl)hydrazine-1-carbonyl)-2-(phenylsulfonamido)phenyl)boronic acid], the solubility at 24 h is 0.0241 mg/mL (≈ 44.7 µM) under setting [1] and 0.0069 mg/mL (≈ 12.8 µM) under setting [2].
Take `Cc1cc(C)cc(C(=O)N(NC(=O)c2ccc3c(c2)B(O)NCC3)C(C)(C)C)c1` [compound 18, N′-(tert-butyl)-N′-(3,5-dimethylbenzoyl)-1-hydroxy-1,2,3,4-tetrahydrobenzo[c][1,2]azaborinine-7-carbohydrazide]: the solubility at 24 h was 0.492 mg/mL (≈ 1250 µM) under setting [1] and 0.505 mg/mL (≈ 1280 µM) under setting [2].
On to `Cc1cc(C)cc(C(=O)NNC(=O)c2ccc3c(c2)N=C(C(F)(F)F)OB3O)c1` [compound 6, N′-(3,5-dimethylbenzoyl)-1-hydroxy-3-(trifluoromethyl)-1H-benzo[c][1,5,2]oxazaborinine-6-carbohydrazide], for which the solubility at 24 h reads like this: under setting [1], 0.0004 mg/mL (≈ 0.987 µM); under setting [2], 0.0017 mg/mL (≈ 4.2 µM).
With `CNCc1ccc(C(=O)NN(C(=O)c2cc(C)cc(C)c2)C(C)(C)C)cc1B(O)O` [compound 10, (5-(2-(tert-butyl)-2-(3,5-dimethylbenzoyl)hydrazine-1-carbonyl)-2-((methylamino)methyl)phenyl)boronic acid], the solubility at 24 h runs as follows: under setting [1], 4.8 mg/mL (≈ 11700 µM); under setting [2], 4.87 mg/mL (≈ 11800 µM).
The like results for `COc1cccc(C(=O)NN(C(=O)c2ccc3c(c2)N=C(C)OB3O)C(C)(C)C)c1C` [compound 12, N-(tert-butyl)-1-hydroxy-N′-(3-methoxy-2-methylbenzoyl)-3-methyl-1H-benzo[c][1,5,2]oxazaborinine-6-carbohydrazide] were, in that order, 3.8 mg/mL (≈ 8970 µM) and 3.76 mg/mL (≈ 8880 µM).
In the same order, the values of `Cc1cc(C)cc(C(=O)N(NC(=O)c2ccc3c(c2)NC(=S)N(c2ccccc2)B3O)C(C)(C)C)c1` [compound 4, N′-(tert-butyl)-N′-(3,5-dimethylbenzoyl)-1-hydroxy-2-phenyl-3-thioxo-1,2,3,4-tetrahydrobenzo[c][1,5,2]diazaborinine-6-carbohydrazide] are 2.64 mg/mL (≈ 5280 µM) and 3.56 mg/mL (≈ 7120 µM).
The like results for `Cc1cc(C)cc(C(=O)N(NC(=O)c2ccc(CN(C)C)c(B(O)O)c2)C(C)(C)C)c1` [compound 11, (5-(2-(tert-butyl)-2-(3,5-dimethylbenzoyl)hydrazine-1-carbonyl)-2-((dimethylamino)methyl)phenyl)boronic acid] were, in that order, 4.65 mg/mL (≈ 10900 µM) and 4.7 mg/mL (≈ 11100 µM).
On to `COc1cccc(C(=O)NN(C(=O)c2ccc3c(c2)NC(=O)N(c2ccccc2)B3O)C(C)(C)C)c1C` [compound 15, N-(tert-butyl)-1-hydroxy-N′-(3-methoxy-2-methylbenzoyl)-3-oxo-2-phenyl-1,2,3,4-tetrahydrobenzo[c][1,5,2]diazaborinine-6-carbohydrazide], for which the solubility at 24 h under setting [1] is 0.417 mg/mL (≈ 833 µM) and the solubility at 24 h under setting [2] turned out to be 0.54 mg/mL (≈ 1080 µM).
In the same order, the values of `Cc1cc(C)cc(C(=O)N(NC(=O)c2ccc3c(c2)B(O)ON=C3)C(C)(C)C)c1` [compound 20, N′-(tert-butyl)-N′-(3,5-dimethylbenzoyl)-1-hydroxy-1H-benzo[d][1,2,6]oxazaborinine-7-carbohydrazide] are 3.33 mg/mL (≈ 8470 µM) and 2.68 mg/mL (≈ 6820 µM).
`Cc1cc(C)cc(C(=O)N(NC(=O)c2ccc(CC#N)c(B(O)O)c2)C(C)(C)C)c1` [compound 19, (5-(2-(tert-butyl)-2-(3,5-dimethylbenzoyl)hydrazine-1-carbonyl)-2-(cyanomethyl)phenyl)boronic acid]: the solubility at 24 h is 0.0314 mg/mL (≈ 77.1 µM) under setting [1] and 0.0168 mg/mL (≈ 41.2 µM) under setting [2].
The like results for `Cc1cc(C)cc(C(=O)N(NC(=O)c2ccc(B(O)O)c(NCC#N)c2)C(C)(C)C)c1` [compound 17, (4-(2-(tert-butyl)-2-(3,5-dimethylbenzoyl)hydrazine-1-carbonyl)-2-((cyanomethyl)amino)phenyl)boronic acid] were, in that order, 0.0593 mg/mL (≈ 140 µM) and 0.00013 mg/mL (≈ 0.308 µM).
